From the METLIN SMRT retention time set (Domingo-Almenara et al. 2019) come the findings set out here.

The data set is described as follows: gradient 5% acetonitrile 3 min, to 50% in 2 min, to 85% in 15 min, held 3 min, 100 µL/min. The settings on record: column: Zorbax Extend-C18 2.1 x 50 mm; eluents: water / acetonitrile, 0.1% formic acid. The gist of the method:
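A Zorbax Extend-C18 column (2.1 × 50 mm, 1.8 μm) run at 100 μL/min with water and acetonitrile, both containing 0.1% formic acid, separated mixtures of ~100 pure standards. The HPLC was coupled to a quadrupole time-of-flight mass spectrometer operated in positive and negative ionization mode, with dead and dwell volumes of 40 μL and 900 μL. Each retention time was taken from a computationally picked adduct peak that was then manually inspected.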
`O=C(CCC(=O)N1CCCC1c1nc2ccccc2s1)N1CCN(c2ccccc2)CC1` (centres undefined) came in with an RP-LC retention time of 812 s. On to `CCCC(=O)Nc1nc(-c2ccc(Br)s2)cs1`, for which the RP-LC retention time is 993 s.

Take `CC1(C(=O)NCc2ccc(F)cc2)Cn2cnc(C(=O)NCCc3ccccc3)c2C(=O)N1C1CC1` (centres undefined): the RP-LC retention time was determined as 772 s. Compound `CCOC(=O)c1cc(S(=O)(=O)N2CCCC2C(=O)Nc2cc(C)cc(C)c2)cn1C` (centres undefined) registered an RP-LC retention time of 1020 s. `Cc1cc(=O)n(CC(=O)Nc2ccc(Br)cc2)c(N2CCc3ccccc3C2)n1` gave an RP-LC retention time of 885 s. Regarding `CSc1ccc(-c2nc3cnccn3c2Nc2cccc(C(F)(F)F)c2)cc1`, the RP-LC retention time was found to be 1020 s. Compound `Cc1cccc(-c2nc(N)n(C(=O)C3CC3)n2)c1` displayed an RP-LC retention time of 885 s. `O=C(CC1CCN(C(=O)Nc2ccccc2F)CC1)N1CCCCC1`: the RP-LC retention time was 709 s.

For the compound `CC1CCN(c2cc(-n3cnc(C(=O)N(C)Cc4ccccc4)c3)ncn2)CC1`, the RP-LC retention time came out at 1050 s. For `Cc1nnc2cc(N3CCN(Cc4cn[nH]c4-c4cccs4)CC3)cnn12`, the RP-LC retention time stood at 543 s. The same measure for `CC1CCCC(NC(=O)c2cc3sc(Cl)cc3n2C)C1C` (centres undefined): 1230 s; for `Nc1cc(C2CCN(C(=O)Nc3ccc(Br)cc3F)CC2)no1`: 736 s; for `CC(C)(C)NC(=O)N1CCC(CNC(=O)C2CCN(S(C)(=O)=O)CC2)CC1`: 599 s. Consider `COCCNC(=O)c1ccc(-c2ccc(N3CCSCC3)nc2)cc1`, for which the RP-LC retention time was determined as 624 s. In the case of `Cc1noc([C@@H]2CN(Cc3cn[nH]c3-c3ccccc3)C[C@H]2CO)n1`, the RP-LC retention time was 582 s. `Cc1ccc(/C=C/C(=O)N2CCC(c3cc(N)on3)CC2)cc1` came in with an RP-LC retention time of 751 s. On to `CC(=O)N1C[C@@H](C(=O)NCCCc2c(C)noc2C)[C@H](c2nc(C)no2)C1`, for which the RP-LC retention time amounted to 626 s. For the compound `CCC(C)C(=O)N1CCCN(C2=NS(=O)(=O)C(c3ccc(C(C)C)cc3)=C2C)CC1` (centres undefined), the RP-LC retention time worked out at 974 s. Regarding `Cc1ccc(NS(=O)(=O)c2cc(-c3[nH]ncc3C(=O)N(C)C)oc2C)c(Cl)c1`, the RP-LC retention time came to 707 s.

Consider `CCC(C)N(CC(=O)N1CCc2sccc2C1COc1ccc(F)cc1)C(=O)COC` (centres undefined), for which the RP-LC retention time was 906 s.

As for `COC(=O)c1c(C)[nH]c(C(=O)N2CCC(CC(=O)N3CCN(c4cccc(C)c4)C(C)C3)CC2)c1C` (centres undefined), the RP-LC retention time was found to be 754 s. `Cc1ccc(N2CC(c3nc(-c4ccc5c(c4)OCO5)no3)CC2=O)c(C)c1` (centres undefined) came in with an RP-LC retention time of 911 s. The figure for `CCc1cc(=O)n(CC(=O)NCc2ccc(OC)cc2)c(N)n1` is 631 s; for `Cc1ccc(-n2nc(N3CCCN(S(=O)(=O)c4ccccc4F)CC3)ccc2=O)cc1C` it is 914 s. In turn, `COc1ccc(C2Cn3nnc(-c4nc(-c5ccccc5Br)no4)c3CO2)cc1` (centres undefined) displayed an RP-LC retention time of 1150 s. In turn, `O=C(CCCn1nc(-c2ccc(F)cc2)ccc1=O)Nc1nc2ccccc2[nH]1` registered an RP-LC retention time of 584 s. With `CC(=O)Nc1c(C)nn(-c2ccc(Cl)cc2)c1N1CCC(C(=O)NCc2ccco2)CC1`, the RP-LC retention time came out at 685 s. As for `O=S(=O)(c1cccnc1)N1CCCC(Cn2c(C3CC3)nc3cccnc32)C1` (centres undefined), the RP-LC retention time was determined as 650 s. Turning to `CCn1c(=O)sc2cc(S(=O)(=O)N3CCC(C(=O)N4CCc5ccccc5C4)CC3)ccc21`, the RP-LC retention time is 944 s.

`Nc1cc(C2CCN(S(=O)(=O)c3cccc(C(F)(F)F)c3)CC2)no1` displayed an RP-LC retention time of 794 s.

As for `CCOC(=O)CCNC(=O)N1c2ccccc2CC1c1nc(C2CC2)no1` (centres undefined), the RP-LC retention time was determined as 853 s. `O=C(NCCn1c(=O)n(Cc2ccc(F)cc2)c2cccnc21)C1CC1`: the RP-LC retention time came out at 711 s. The same measure for `O=C(Nc1ccc(F)cc1)N1CCC(N2CCN(Cc3ccccc3)C(=O)C2=O)CC1`: 723 s; for `CCCn1cc(CCNC(=O)c2ccc(Br)cc2)c2cccnc21`: 832 s; for `CC(NC(=O)c1ccc2nc(-c3ccccc3)cn2c1)c1ccccn1` (centres undefined): 572 s. Turning to `CCc1ccc(OCC(=O)N(Cc2ccc(Br)o2)C2CCS(=O)(=O)C2)cc1` (centres undefined), the RP-LC retention time was found to be 963 s. The same measure for `CN(C)C1(CC2CC2)CCN(C(=O)c2ccsc2)CC1`: 578 s. On to `O=C(NCCOc1ccccc1)c1ccccc1C(=O)c1ccccc1`, for which the RP-LC retention time was 918 s. Take `O=C(CNC(=O)c1ccccc1)NCCSc1ccc(C(=O)Nc2ccccc2)cn1`: the RP-LC retention time stood at 728 s.

In the case of `COC(=O)c1ccc2c(=O)n(-c3cccc(F)c3)c(N3CCCCCC3)nc2c1`, the RP-LC retention time is 1210 s. The figure for `Cc1sc(NC(=O)c2ccccc2Br)nc1-c1ccc2c(c1)NC(=O)CO2` is 859 s; for `CC(C)(C)c1nc(N2CCCCC2)c2ccccc2n1` it is 723 s. On to `Oc1ccc(Cc2ccccc2Cl)c(O)c1`, for which the RP-LC retention time is 891 s. For the compound `CCc1ccccc1N1C(=O)CN(S(C)(=O)=O)CC1(C)C(=O)NCc1ccc(C)cc1` (centres undefined), the RP-LC retention time is 860 s. Consider `NC(=O)N1CCC(CC(=O)N2CCC([C@H]3c4ncc(Br)cc4CCc4cc(Cl)cc(Br)c43)CC2)CC1`, for which the RP-LC retention time is 1040 s.

The compound `Cc1sc(NC(=O)CSc2nnc(COc3ccccc3)o2)nc1-c1ccccc1` had an RP-LC retention time of 877 s. `CCOc1ccc(CNC(=O)C2CCCN(c3ncnc4c3oc3ccccc34)C2)cc1` (centres undefined) yielded an RP-LC retention time of 784 s.

In turn, `CCCn1cc(C(=O)NCc2ccc(N(C)C)cc2)c2cccnc21` gave an RP-LC retention time of 630 s. `Cc1ccc(S(=O)(=O)Cc2nc(-c3cccc(Br)c3)no2)cc1` returned an RP-LC retention time of 1040 s. In turn, `O=C(c1c(-c2ccccc2)nnc2ccccc12)N1CCN(c2ncccn2)CC1` displayed an RP-LC retention time of 773 s. `COc1ccc(C(=O)N2CCc3cc(-c4csc(C)n4)ccc32)cc1`: the RP-LC retention time is 972 s. `CCCN(c1ccc(OCC)cc1)c1nc(C(=O)OCC)nc2ccccc12` returned an RP-LC retention time of 1120 s. The same measure for `CCN(Cc1ccccc1)C(=O)Cn1nc2c(N3CCSCC3)nccn2c1=O`: 829 s.

As to `CN(C(=O)c1cc2c(=O)n(C)c(=O)n(C)c2s1)c1cccc(Cl)c1`, the RP-LC retention time worked out at 827 s. `O=C1CCCN1CCCN(CC(=O)N1CCNCC1)C(=O)c1ccc(C(F)(F)F)cc1` came in with an RP-LC retention time of 602 s. Regarding `CN1C(=O)c2ccccc2C(C(=O)NCCN(Cc2ccco2)C2CCCC2)C1c1cccs1` (centres undefined), the RP-LC retention time is 674 s. The figure for `Cn1c(N2CCN(C(=O)c3ccccc3Br)CC2)cc(=O)n(C)c1=O` is 668 s; for `Cc1noc(C)c1CC(=O)N(C)C1CCc2nn(CC3CC3)c(=O)n2CC1` (centres undefined) it is 630 s; for `O=C(Nc1ccccc1Br)C1CCCN(C(=O)c2ccccc2F)C1` (centres undefined) it is 860 s. As to `O=C1CC(c2ccccc2F)Cc2nc(N3CCN(c4ccccn4)CC3)ncc21` (centres undefined), the RP-LC retention time was 702 s. In turn, `Cn1c(=O)oc2cc(-c3noc(/C=C/c4ccccc4)n3)ccc21` yielded an RP-LC retention time of 1060 s. Compound `COc1ccc(CNC(=O)c2nc(N3CCSCC3)c3cnn(C)c3n2)cc1` returned an RP-LC retention time of 775 s.

As for `CCS(=O)(=O)N1CCCc2cc(C(=O)NCC3CCCO3)ccc21` (centres undefined), the RP-LC retention time is 708 s.

As for `CCC(=O)N(C1CCOCC1)C1CCN(S(=O)(=O)c2ccc(OC)cc2)CC1`, the RP-LC retention time was 800 s. The same measure for `COc1cc(C(=O)N(Cc2ccc(N(C)C)cc2)C2CCS(=O)(=O)C2)cc(OC)c1OC` (centres undefined): 634 s; for `COC(=O)c1ncn2c1C(=O)N(CCCc1ccccc1)C(C)(C(=O)NC1CCCCC1)C2` (centres undefined): 820 s. The figure for `CC(C)N1CCn2cc(S(=O)(=O)Nc3ccc(F)cc3)cc2C1=O` is 757 s. Take `CCOC(=O)c1cc(S(=O)(=O)N2CCCC2C(=O)Nc2ccc(C)cc2Br)cn1C` (centres undefined): the RP-LC retention time was found to be 1060 s. The figure for `Cc1ccc2c(c1)N(S(C)(=O)=O)CCC(C(=O)NC1CCCCC1)O2` (centres undefined) is 914 s; for `COc1cc(NC(=O)c2c(S(=O)(=O)Nc3ccc(Cl)cc3)n[nH]c2C)cc(OC)c1` it is 886 s.

Take `CCOc1ccccc1NS(=O)(=O)c1ccc2c(c1)C(=O)N(C)c1ncccc1O2`: the RP-LC retention time came out at 941 s.

For the compound `COCCNC(=O)NC1CCN(c2nc3cccnc3n(Cc3ccccc3)c2=O)CC1`, the RP-LC retention time is 806 s. With `O=C(NCc1cccnc1)C1CCN(c2cc(N3CCSCC3)ncn2)CC1`, the RP-LC retention time is 553 s. The figure for `CCNC(=O)c1cc(C)no1` is 596 s; for `COc1ccc(Cl)cc1NC(=O)NCCc1nc2cccnc2n1CC(C)C` it is 770 s. In the case of `Cc1nc(-c2cnccn2)nc2c1CCC(=O)N2Cc1ccncc1`, the RP-LC retention time turned out to be 510 s.

For the compound `COC(=O)C1=CN(c2ccc(OC)cc2OC)c2cc(F)ccc2S1(=O)=O`, the RP-LC retention time was 875 s. With `Cn1nc2c(c1NC(=O)Cc1ccc3c(c1)OCO3)CCC2`, the RP-LC retention time stood at 644 s. `CC(=O)c1cc2c(cc1NC(=O)c1cn(Cc3ccc(C)cc3)nn1)OCO2`: the RP-LC retention time was determined as 1030 s.
